Here are results for 37 molecules from US20090131468A1, “Bis-(Sulfonylamino) Derivatives in Therapy 065” (AstraZeneca AB, priority 2007, published 2009).

The structures appear in SMILES notation.

In this experiment the target is T1, human mPGES-1 (Homo sapiens, UniProt O14684).
T1 sequence (O14684 1-152): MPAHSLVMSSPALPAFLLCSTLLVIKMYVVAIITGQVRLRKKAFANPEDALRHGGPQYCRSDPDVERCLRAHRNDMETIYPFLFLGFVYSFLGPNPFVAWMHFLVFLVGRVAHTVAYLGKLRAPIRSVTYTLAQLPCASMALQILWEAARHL
Put plainly: Microsomal prostaglandin E synthase biochemical assay. The settings on record: microsome preparation containing human mPGES-1; PGH2 10.8 μM, GSH 2.5 mM, pH 6.8; PGE2 quantified by HTRF; average of at least n=2. An outline of the steps:
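Human mPGES-1 microsomes (from IL-1β-stimulated A549 cells or Sf9 cells expressing human mPGES-1) were pre-incubated 15 min with compound in potassium phosphate buffer pH 6.8 with GSH. PGH2 was then added, and the reaction was stopped after one minute with acidic ferric chloride/citrate. PGE2 was read by HTRF, and IC50 was taken from control-normalised activity.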
On the technique in general: In TR-FRET formats the signal depends on donor and acceptor labels being close together.

`NS(=O)(=O)c1ccccc1S(=O)(=O)NC(=O)c1ccc(C#CC2CCCCC2)cn1` [Example 88, 5-(Cyclohexylethynyl)-N-(2-sulfamoylphenylsulfonyl)picolinamide]: the IC50 turned out to be 140 nM. `CC(C)(C)C#Cc1ccc(C(=O)NS(=O)(=O)c2ccccc2S(N)(=O)=O)nc1` [Example 89, 5-(3,3-Dimethylbut-1-ynyl)-N-(2-sulfamoylphenylsulfonyl)picolinamide]: the IC50 amounted to 1200 nM. Next, `COc1c(C#CC(C)(C)C)ccc(C(=O)NS(=O)(=O)c2ccccc2S(N)(=O)=O)c1F` [Example 90, 4-(3,3-Dimethylbut-1-ynyl)-2-fluoro-3-methoxy-N-(2-sulfamoylphenylsulfonyl)-benzamide]: 260 nM; `NS(=O)(=O)c1ccccc1S(=O)(=O)NC(=O)c1ccc(-c2cc3ccccc3o2)cc1Cl` [Example 91, 4-(Benzofuran-2-yl)-2-chloro-N-(2-sulfamoylphenylsulfonyl)benzamide]: 120 nM. Consider `NS(=O)(=O)c1ccccc1S(=O)(=O)NC(=O)c1ccc(C#CC2CCCC2)cc1O` [Example 92, 4-(Cyclopentylethynyl)-2-hydroxy-N-(2-sulfamoylphenylsulfonyl)benzamide], for which the IC50 is 19 nM. For `NS(=O)(=O)c1ccccc1S(=O)(=O)NC(=O)c1ccc(C#CC2CCCC2)nc1` [Example 93, 6-(Cyclopentylethynyl)-N-(2-sulfamoylphenylsulfonyl)nicotinamide] the value was 58 nM; for `NS(=O)(=O)c1ccccc1S(=O)(=O)NC(=O)c1ccc(C#Cc2ccccn2)nc1` [Example 94, 6-(Pyridin-2-ylethynyl)-N-(2-sulfamoylphenylsulfonyl)nicotinamide], 13000 nM. As to `NS(=O)(=O)c1ccccc1S(=O)(=O)NC(=O)c1ccc(C#Cc2cccnc2)nc1` [Example 95, 6-(Pyridin-3-ylethynyl)-N-(2-sulfamoylphenylsulfonyl)nicotinamide], it took 2000 nM to reach half-maximal inhibition (IC50). In turn, `CC(C)(C)C#Cc1ncc(C(=O)NS(=O)(=O)c2ccccc2S(N)(=O)=O)cn1` [Example 96, 2-(3,3-Dimethylbut-1-ynyl)-N-(2-sulfamoylphenylsulfonyl)pyrimidine-5-carboxamide] displayed an IC50 of 1700 nM. In turn, `NS(=O)(=O)c1ccccc1S(=O)(=O)NC(=O)c1ccc(COCCC(F)(F)F)cc1` [Example 97, N-(2-Sulfamoylphenylsulfonyl)-4-((3,3,3-trifluoropropoxy)methyl)benzamide] came in with a half-maximal inhibitory concentration (IC50) of 5100 nM. `NS(=O)(=O)c1ccccc1S(=O)(=O)NC(=O)c1ccc(C#CC2CCCC2)c(CO)c1` [Example 98, 4-(Cyclopentylethynyl)-3-(hydroxymethyl)-N-(2-sulfamoylphenylsulfonyl)benzamide] came in with an IC50 of 110 nM. The molecule `CC(C)C#Cc1ccc(C(=O)NS(=O)(=O)c2ccccc2S(N)(=O)=O)cn1` [Example 99, 6-(3-Methylbut-1-ynyl)-N-(2-sulfamoylphenylsulfonyl)nicotinamide] yielded an IC50 of 400 nM. Next, `NS(=O)(=O)c1ccccc1S(=O)(=O)NC(=O)c1ccc(C#Cc2ccccc2)c(CO)c1` [Example 100, 3-(Hydroxymethyl)-4-(phenylethynyl)-N-(2-sulfamoylphenylsulfonyl)benzamide]: 70 nM; `NS(=O)(=O)c1ccccc1S(=O)(=O)NC(=O)c1ccc(C#CC2CCCCC2)c(CO)c1` [Example 101, 4-(Cyclohexylethynyl)-3-(hydroxymethyl)-N-(2-sulfamoylphenylsulfonyl)benzamide]: 48 nM; `NS(=O)(=O)c1ccccc1S(=O)(=O)NC(=O)c1cnc(C#Cc2ccc(Cl)cc2)nc1` [Example 102, 2-((4-chlorophenyl)ethynyl)-N-(2-sulfamoylphenylsulfonyl)pyrimidine-5-carboxamide]: 53 nM. For `NS(=O)(=O)c1ccccc1S(=O)(=O)NC(=O)c1ccc(-c2cc3ccccc3o2)c(CO)c1` [Example 103, 4-(Benzofuran-2-yl)-3-(hydroxymethyl)-N-(2-sulfamoylphenylsulfonyl)benzamide], the IC50 was 15 nM. For the molecule `NS(=O)(=O)c1ccccc1S(=O)(=O)NC(=O)[C@H]1CC[C@@H](c2cc3ccccc3o2)CC1` [Example 105, (1s,4s)-4-(Benzofuran-2-yl)-N-(2-sulfamoylphenylsulfonyl)cyclohexanecarboxamide], the IC50 was found to be 2100 nM. `NS(=O)(=O)c1ccccc1S(=O)(=O)NC(=O)[C@H]1CC[C@H](c2cc3ccccc3o2)CC1` [Example 106, (1r,4r)-4-(Benzofuran-2-yl)-N-(2-sulfamoylphenylsulfonyl)cyclohexanecarboxamide]: the IC50 worked out at 140 nM. On to `C[C@]1(C(=O)NS(=O)(=O)c2ccccc2S(N)(=O)=O)CC[C@H](c2cc3ccccc3o2)CC1` [Example 108, (1r,4r)-4-(Benzofuran-2-yl)-1-methyl-N-(2-sulfamoylphenylsulfonyl)cyclohexane-carboxamide], for which the IC50 came out at 7000 nM. `C[C@]1(C(=O)NS(=O)(=O)c2ccccc2S(N)(=O)=O)CC[C@@H](c2cc3ccccc3o2)CC1` [Example 109, (1s,4s)-4-(Benzofuran-2-yl)-1-methyl-N-(2-sulfamoylphenylsulfonyl) cyclohexane-carboxamide] returned a concentration for half-maximal inhibition (IC50) of 270 nM. `COc1cc(C(=O)NS(=O)(=O)c2ccccc2S(N)(=O)=O)ccc1C#CC(C)(C)C` [Example 110, 4-(3,3-Dimethylbut-1-ynyl)-3-methoxy-N-(2-sulfamoylphenylsulfonyl)benzamide] had an IC50 of 270 nM. `COC(C)(C)C#Cc1ccc(C(=O)NS(=O)(=O)c2ccccc2S(N)(=O)=O)cc1` [Example 112, 4-(3-Methoxy-3-methylbut-1-ynyl)-N-(2-sulfamoylphenylsulfonyl)benzamide] displayed an IC50 of 1400 nM.

As to `CC(C)C#Cc1ccc(C(=O)NS(=O)(=O)c2ccccc2S(N)(=O)=O)cc1` [Example 113, 4-(3-Methylbut-1-ynyl)-N-(2-sulfamoylphenylsulfonyl)benzamide], 80 nM corresponded to half-maximal inhibition (IC50). Next, `COc1cc(C(=O)NS(=O)(=O)c2ccccc2S(N)(=O)=O)ccc1C#CC(C)(C)OC` [Example 114, 3-Methoxy-4-(3-methoxy-3-methylbut-1-ynyl)-N-(2-sulfamoylphenylsulfonyl)-benzamide]: 1600 nM; `COC(C)(C)C#Cc1ccc(C(=O)NS(=O)(=O)c2ccccc2S(N)(=O)=O)cc1O` [Example 115, 3-Hydroxy-4-(3-methoxy-3-methylbut-1-ynyl)-N-(2-sulfamoylphenylsulfonyl)-benzamide]: 4300 nM; `CC(C)(C)C#Cc1ccc(C(=O)NS(=O)(=O)c2ccccc2S(N)(=O)=O)cn1` [Example 116, 6-(3,3-Dimethylbut-1-ynyl)-N-(2-sulfamoylphenylsulfonyl)nicotinamide]: 350 nM. Turning to `NS(=O)(=O)c1ccccc1S(=O)(=O)NC(=O)c1ccc(-c2cc3ccccc3o2)nc1` [Example 117, 6-(Benzofuran-2-yl)-N-(2-sulfamoylphenylsulfonyl)nicotinamide], the IC50 was found to be 180 nM. In turn, `COCCOCCOc1cc(C(=O)NS(=O)(=O)c2ccccc2S(N)(=O)=O)ccc1C#CC(C)(C)C` [Example 118, 4-(3,3-Dimethylbut-1-ynyl)-3-(2-(2-methoxyethoxy)ethoxy)-N-(2-sulfamoylphenyl-sulfonyl)benzamide] came in with an IC50 of 620 nM. In turn, `COCCOCCOc1cc(C(=O)NS(=O)(=O)c2ccccc2S(N)(=O)=O)ccc1-c1cc2ccccc2o1` [Example 119, 4-(Benzofuran-2-yl)-3-(2-(2-methoxyethoxy)ethoxy)-N-(2-sulfamoylphenylsulfonyl)-benzamide] registered a half-maximal inhibitory concentration (IC50) of 17 nM. For `COc1ccccc1-c1cc2cc(C(=O)NS(=O)(=O)c3ccccc3S(N)(=O)=O)ccc2o1` [Example 120, 2-(2-Methoxyphenyl)-N-(2-sulfamoylphenylsulfonyl)benzofuran-5-carboxamide] the value was 28 nM; for `CC(OC(C)(C)C)c1cc2cc(C(=O)NS(=O)(=O)c3ccccc3S(N)(=O)=O)ccc2o1` (stereo not shown) [Example 121, 2-(1-tert-Butoxyethyl)-N-(2-sulfamoylphenylsulfonyl)benzofuran-5-carboxamide], 2100 nM. With `NS(=O)(=O)c1ccccc1S(=O)(=O)NC(=O)c1ccc2oc(-c3ccccn3)cc2c1` [Example 122, 2-(Pyridin-2-yl)-N-(2-sulfamoylphenylsulfonyl)benzofuran-5-carboxamide], the IC50 was 650 nM. `NS(=O)(=O)c1ccccc1S(=O)(=O)NC(=O)c1ccc2oc(-c3cccnc3)cc2c1` [Example 123, 2-(Pyridin-3-yl)-N-(2-sulfamoylphenylsulfonyl)benzofuran-5-carboxamide] yielded an IC50 of 2000 nM. With `CC(C)(O)c1cc2cc(C(=O)NS(=O)(=O)c3ccccc3S(N)(=O)=O)ccc2o1` [Example 124, 2-(2-Hydroxypropan-2-yl)-N-(2-sulfamoylphenylsulfonyl)benzofuran-5-carboxamide], inhibition was half-maximal at 21000 nM (IC50).

In turn, `COC(C)(C)c1cc2cc(C(=O)NS(=O)(=O)c3ccccc3S(N)(=O)=O)ccc2o1` [Example 125, 2-(2-Methoxypropan-2-yl)-N-(2-sulfamoylphenylsulfonyl)benzofuran-5-carboxamide] showed an IC50 of 12000 nM. For `NS(=O)(=O)c1ccccc1S(=O)(=O)NC(=O)c1ccc2oc(C3CC3)cc2c1` [Example 126, 2-Cyclopropyl-N-(2-sulfamoylphenylsulfonyl)benzofuran-5-carboxamide] the value was 260 nM; for `CC(C)Oc1cc(C(=O)NS(=O)(=O)c2ccccc2S(N)(=O)=O)ccc1-c1cc2ccccc2o1` [Example 127, 4-(Benzofuran-2-yl)-3-isopropoxy-N-(2-sulfamoylphenylsulfonyl)benzamide], 9.5 nM.

Usually IC50 stands for the concentration needed to halve the response being measured.
